Results as given in patent US20090124588A1, “Androstane 17-Alpha-Carbonate for Use in the Treatment of Inflammatory and Allergic Conditions” (Glaxo Group Limited, priority 2005, published 2009).

Tests used:
Assay type in all cases: cell-based
[1] = target: T1, glucocorticoid receptor (Homo sapiens, UniProt P04150); assay: Transrepression activity of glucocorticoid agonists (NF-κB/ELAM-sPAP reporter in A549 cells, TNF stimulated); settings: NF-κB responsive ELAM promoter-sPAP reporter, compound 1 hour, TNF 10 ng/ml 16 hours, read-out: pEC50 transrepression (converted)
T1 sequence (P04150 1-777): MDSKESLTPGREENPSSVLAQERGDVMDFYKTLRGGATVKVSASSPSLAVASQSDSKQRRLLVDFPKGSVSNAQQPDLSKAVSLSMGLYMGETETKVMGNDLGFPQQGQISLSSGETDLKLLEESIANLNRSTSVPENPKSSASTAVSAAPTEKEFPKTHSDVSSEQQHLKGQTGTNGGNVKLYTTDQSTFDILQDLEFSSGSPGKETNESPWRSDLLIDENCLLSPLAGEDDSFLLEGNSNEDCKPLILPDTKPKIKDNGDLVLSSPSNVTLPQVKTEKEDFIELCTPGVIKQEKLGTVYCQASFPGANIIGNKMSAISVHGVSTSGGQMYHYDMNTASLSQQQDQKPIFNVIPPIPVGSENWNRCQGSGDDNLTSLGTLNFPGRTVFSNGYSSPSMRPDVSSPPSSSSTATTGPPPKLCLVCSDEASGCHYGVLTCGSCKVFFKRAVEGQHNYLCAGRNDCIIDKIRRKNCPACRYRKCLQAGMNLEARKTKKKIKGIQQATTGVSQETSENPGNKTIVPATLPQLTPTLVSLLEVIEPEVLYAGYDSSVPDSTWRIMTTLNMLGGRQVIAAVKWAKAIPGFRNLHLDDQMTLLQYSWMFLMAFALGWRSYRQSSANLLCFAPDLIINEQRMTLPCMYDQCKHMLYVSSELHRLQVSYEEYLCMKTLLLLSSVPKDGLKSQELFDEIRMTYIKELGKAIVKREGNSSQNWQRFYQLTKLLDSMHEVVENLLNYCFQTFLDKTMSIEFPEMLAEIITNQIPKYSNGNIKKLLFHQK
Protocol: The functional assay based on that described by K. P. Ray et al., Biochem J. (1997), 328, 707-715 provides a measure of transrepressive activity of a glucocorticoid agonist. A549 cells stably transfected with a reporter gene containing the NF-κB responsive elements from the ELAM gene promoter coupled to sPAP (secreted alkaline phosphatase) are treated with test compounds at appropriate doses for 1 hour at 37° C. The cells are then stimulated with tumour necrosis factor (TNF, 10 ng/ml) for 16 hours, at which time the amount of alkaline phosphatase produced is measured by a standard colourimetric assay. Dose response curves were constructed from which EC50 values were estimated.

[2] = target: T1, glucocorticoid receptor; assay: Transactivation activity of glucocorticoid agonists (MMTV-LTR renilla luciferase reporter in A549 cells); settings: 6 hour at 37° C., read-out: maximal response relative to Dexamethasone (100%)
Protocol: The functional assay based on that described by R. J. H. Austin et al., Eur Resp J. (2002), 20, 1386-1392 measures the ability of compounds to directly transactivate gene expression. A549 cells stably transfected with a reporter gene containing the glucocorticoid responsive region of the mouse mammary tumour virus long terminal repeat (MMTV-LTR) coupled to renilla luciferase were treated with test compounds at appropriate doses for 6 hour at 37° C. The amount of luciferase activity present within the cells is then determined by measuring the light emitted following incubation with a suitable substrate. Dose response curves were constructed from which EC50 values were estimated and from which maximal responses are calculated relative to Dexamethasone (100%).

[3] = target: T2, Progesterone Receptor (Homo sapiens, UniProt P06401); assay: Progesterone receptor activity (CV-1 cells transduced with PRb-BacMam and MMTV-BacMam); settings: 24 h, Steady Glo, read-out: pEC50 progesterone receptor (converted)
T2 construct: expressed in transfected cells; host or cells: CV-1 cells transduced with BacMam virus
T2 sequence (P06401 1-933): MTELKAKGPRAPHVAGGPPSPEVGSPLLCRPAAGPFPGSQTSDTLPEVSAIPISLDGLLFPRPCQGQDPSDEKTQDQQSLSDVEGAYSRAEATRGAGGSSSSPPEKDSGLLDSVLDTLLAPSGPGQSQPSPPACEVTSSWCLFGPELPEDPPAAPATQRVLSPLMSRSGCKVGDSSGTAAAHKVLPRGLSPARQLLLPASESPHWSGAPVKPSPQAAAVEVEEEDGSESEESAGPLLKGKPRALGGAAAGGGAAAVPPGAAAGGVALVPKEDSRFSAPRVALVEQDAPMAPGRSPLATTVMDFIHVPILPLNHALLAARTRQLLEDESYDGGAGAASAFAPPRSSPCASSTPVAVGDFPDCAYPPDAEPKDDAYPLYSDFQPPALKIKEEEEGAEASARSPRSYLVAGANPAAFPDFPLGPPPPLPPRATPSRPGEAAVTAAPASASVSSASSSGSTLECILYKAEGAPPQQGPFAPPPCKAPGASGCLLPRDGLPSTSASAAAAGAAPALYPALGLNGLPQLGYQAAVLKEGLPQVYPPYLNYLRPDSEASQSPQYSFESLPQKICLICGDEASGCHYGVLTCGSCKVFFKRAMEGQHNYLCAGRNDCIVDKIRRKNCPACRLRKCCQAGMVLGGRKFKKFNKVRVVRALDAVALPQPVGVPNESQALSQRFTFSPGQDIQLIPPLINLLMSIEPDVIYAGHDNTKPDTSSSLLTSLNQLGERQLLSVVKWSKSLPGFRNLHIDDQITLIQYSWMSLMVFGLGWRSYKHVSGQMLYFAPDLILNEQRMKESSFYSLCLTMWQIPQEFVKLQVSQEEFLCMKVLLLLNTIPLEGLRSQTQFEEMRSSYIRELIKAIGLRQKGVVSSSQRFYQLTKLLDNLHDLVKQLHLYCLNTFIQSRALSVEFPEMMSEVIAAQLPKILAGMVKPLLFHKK
Protocol: A T225 flask of CV-1 cells at a density of 80% confluency was washed with PBS, detached from the flask using 0.25% trypsin and counted using a Sysmex KX-21N. Cells were diluted in DMEM containing 10% Hyclone, 2 mM […] and 1% Pen/Strep at 140 cells/μl and transduced with 10% PRb-BacMam and 10% MMTV-BacMam. […] of suspension cells were dispensed to each well of white Nunc 384-well plates, containing compounds at the required concentration. After 24 h 10 μl of Steady Glo were added to each well of the plates. Plates were incubated in the dark for 10 min before reading them on a Viewlux reader. Dose response curves were constructed from which pEC50 values were estimated.

`C[C@@H]1C[C@H]2[C@@H]3C[C@H](F)C4=CC(=O)C=C[C@]4(C)[C@@]3(F)[C@@H](O)C[C@]2(C)[C@@]1(OC(=O)OC(C)(C)C)C(=O)OCC#N` [Example 1, Cyanomethyl (6α,11β,16α,17α)-17-({[(1,1-dimethylethyl)oxy]carbonyl}oxy)-6,9-difluoro-11-hydroxy-16-methyl-3-oxoandrosta-1,4-diene-17-carboxylate] showed an EC50 [1] of less than 0.1 nM, an Emax [2] of less than 10% and an EC50 [3] greater than 100 nM.
`CCC(C)(C)OC(=O)O[C@]1(C(=O)OCC#N)[C@H](C)C[C@H]2[C@@H]3C[C@H](F)C4=CC(=O)C=C[C@]4(C)[C@@]3(F)[C@@H](O)C[C@@]21C` [Example 2, Cyanomethyl (6α,11β,16α,17α)-17-({[(1,1-dimethylpropyl)oxy]carbonyl}oxy)-6,9-difluoro-1-hydroxy-16-methyl-3-oxoandrosta-1,4-diene-17-carboxylate] was tested, and the EC50 [1] was less than 0.1 nM, the Emax [2] was less than 10% and the EC50 [3] was greater than 100 nM.
